Source: patent US20140093459A1, “NOVEL COMPOUND” (DSM IP ASSETS B.V., priority 2009, published 2014)

Legend:
[1] = Comparative: solubility of BMDBM in 1:1 (w/w) mixture of C12-15 alkyl benzoate and a polymeric or solid UV-filter (HPLC after 1 month at RT)
Description: Where necessary the mixture was centrifuged in order to obtain a clear supernatant.

[2] = Solubility of BEMT in 1:1 (w/w) mixture C12-15 alkyl benzoate/PG-UVAB1 (dissolving, storage 1 month at RT); assay type: physicochemical
[3] = Solubility of BMDBM or BEMT in C12-15 alkyl benzoate (saturation, HPLC of supernatant); assay type: physicochemical
[4] = Reduction of solvent necessary to dissolve solid UV-filter; assay type: physicochemical

Solubility of BMDBM in C12-15 alkyl benzoate/UV-filter 1:1 ([1]; 200 mg BMDBM with 1000 mg of 1:1 (w/w) mixture, supernatant HPLC after 1 month at RT) [wt.-%] | Δ solubility related to cosmetic solvent (BMDBM) ([1]; 1:1 mixture C12-15 alkyl benzoate/UV-filter) [wt.-%] | Δ solubility (BMDBM) ([1]; 1:1 mixture with UV-filter versus C12-15 alkyl benzoate alone) [wt.-%] | re-crystallization on storage ([2]; 200 mg BEMT in 800 mg 1:1 C12-15 alkyl benzoate/PG-UVAB1, stored 1 month at RT) | solubility of BEMT in 1:1 (w/w) mixture of C12-15 alkyl benzoate/PG-UVAB1 ([2]; 200 mg BEMT in 800 mg of the mixture, 1 month at RT) | Solubility of BEMT in C12-15 alkyl benzoate/PG-UVAB1 1:1 ([2]; 1:1 mixture with PG-UVAB1) [wt.-%] | Δ solubility related to cosmetic solvent (BEMT) ([2]; 1:1 mixture with PG-UVAB1) | Δ solubility (BEMT) ([2]; 1:1 mixture with PG-UVAB1 versus C12-15 alkyl benzoate alone) | Increase of solubility of BEMT ([2]; BEMT, 1:1 mixture with PG-UVAB1 versus C12-15 alkyl benzoate alone) | Solubility in C12-15 alkyl benzoate ([3]; C12-15 alkyl benzoate alone (summary table)) [wt.-%] | solubility in the cosmetic solvent C12-15 alkyl benzoate ([3]; C12-15 alkyl benzoate alone, saturation, HPLC of supernatant) [wt.-%] | amount of 1:1 (w/w) mixture of PG-UVAB1 and diisopropyl sebacate needed to dissolve 0.5 g BMDBM ([4]; 1:1 (w/w) PG-UVAB1/diisopropyl sebacate) [g] | amount of 1:1 (w/w) mixture of PG-UVAB2 and C12-15 alkyl benzoate necessary to dissolve 0.5 g BMDBM ([4]; 1:1 (w/w) PG-UVAB2/C12-15 alkyl benzoate) [g] | Compound
3 | −4 | −11 | no re-crystallization occurred | at least 20 wt.-% | 20 | +13.5 wt.-% | +7 wt.-% | +54% | 13 | 13 |  |  | CCCCC(CC)COc1ccc(-c2nc(-c3ccc(OC)cc3)nc(-c3ccc(OCC(CC)CCCC)cc3O)n2)c(O)c1 (stereo not shown) [BEMT, bis-ethylhexyloxyphenol methoxyphenyl triazine]
 |  |  |  |  |  |  |  |  |  |  | 1.4 | 1.5 | butyl methoxydibenzoylmethane [BMDBM]
